Results: ChEMBL document CHEMBL5518215, “Unlocking Antibacterial Potential: Key-Site-Based Regulation of Antibacterial Spectrum of Peptides” (J Med Chem, 2024)
Values belong to the compound of their own block, whether it stands above or below them. Residues, ends and D or L forms follow the SMILES beside them. *: point of attachment. FITC = O=C1OC2(c3ccc(O)cc3Oc3cc(O)ccc32)c2ccc(NC(=S)*)cc21

Tests used:
[1] = Drug distribution in Escherichia coli 25922 assessed as green fluorescence signal covered all the bacterial cell at 1 time MIC concentration incubated for 30 mins in absence of light by 3D-SIM super resolution microscopy; format: ADME; conditions: 0.5 h
[2] = Drug distribution in Escherichia coli 25922 assessed as red fluorescence signal at 1 time MIC concentration incubated for 30 mins in absence of light by Propidium iodide staining based assay; format: ADME; conditions: 0.5 h
[3] = Drug distribution in Staphylococcus aureus 29213 assessed as green fluorescence signal covered all the bacterial cell at 1 time MIC concentration incubated for 30 mins in absence of light by 3D-SIM super resolution microscopy; format: ADME; conditions: 0.5 h
[4] = Drug distribution in Staphylococcus aureus 29213 assessed as red fluorescence signal at 1 time MIC concentration incubated for 30 mins in absence of light by Propidium iodide staining based assay; format: ADME; conditions: 0.5 h
Listeria monocytogenes [5] = experiment: Antimicrobial activity against Listeria monocytogenes 1.10753 assessed as absence bacterial growth measured after 18 to 24 hrs incubation by NCCLS method; format: functional; conditions: time 18-24 hrs
[6] = Cytotoxicity against mouse RAW264.7 cells assessed as cell survival rate measured after 8 hrs by MTT assay; format: toxicity, cell-based
Salmonella typhimurium [7] = experiment: Antimicrobial activity against Salmonella typhimurium C7731 assessed as bacterial killing measured after 16 hrs incubation; format: functional, Salmonella enterica subsp. enterica serovar Typhimurium; conditions: Salmonella enterica
Erythrocyte = experiment: Hemolytic activity in human RBC at effective concentration measured after 1 hr by microplate reader analysis; format: toxicity, cell-based
[8] = tested on: Staphylococcus epidermidis; experiment: Antimicrobial activity against Staphylococcus epidermidis 12228 assessed as absence bacterial growth measured after 18 to 24 hrs incubation by NCCLS method; format: functional; conditions: time 18-24 hrs
Escherichia coli [9] = experiment: Antimicrobial activity against Escherichia coli 25922 assessed as absence bacterial growth measured after 18 to 24 hrs incubation in presence of MgCl2 by NCCLS method; format: functional; conditions: time 18-24 hrs
Escherichia coli [10] = experiment: Antimicrobial activity against Escherichia coli 25922 assessed as absence bacterial growth measured after 18 to 24 hrs incubation in presence of NH4Cl by NCCLS method; format: functional; conditions: time 18-24 hrs
Bacillus cereus [11] = experiment: Antimicrobial activity against Bacillus cereus 1.932 assessed as bacterial killing measured after 16 hrs incubation; format: functional
Acinetobacter baumannii [12] = experiment: Antimicrobial activity against Acinetobacter baumannii 1.6769 assessed as absence bacterial growth measured after 18 to 24 hrs incubation by NCCLS method; format: functional; conditions: time 18-24 hrs
Escherichia coli [13] = experiment: Antimicrobial activity against Escherichia coli 25922 assessed as absence bacterial growth measured after 18 to 24 hrs incubation in presence of 25% serum by NCCLS method; format: functional; conditions: time 18-24 hrs
Escherichia coli [14] = experiment: Antimicrobial activity against Escherichia coli 25922 assessed as absence bacterial growth measured after 18 to 24 hrs incubation in presence of FeCl3 by NCCLS method; format: functional; conditions: time 18-24 hrs
Escherichia coli [15] = experiment: Antimicrobial activity against Escherichia coli K88 assessed as absence bacterial growth measured after 18 to 24 hrs incubation by NCCLS method; format: functional; conditions: time 18-24 hrs
[16] = Hemolytic activity in human RBC at effective concentration at 128 uM measured after 1 hr by microplate reader relative to control; format: toxicity, cell-based, Erythrocyte; conditions: human red blood cells (erythrocytes), read-out: Activity
Acinetobacter baumannii [17] = experiment: Antimicrobial activity against Acinetobacter baumannii 1.6769 assessed as bacterial killing measured after 16 hrs incubation; format: functional
Staphylococcus aureus [18] = experiment: Antimicrobial activity against Methicillin-resistant Staphylococcus aureus 43300 assessed as absence bacterial growth measured after 18 to 24 hrs incubation by NCCLS method; format: functional; conditions: time 18-24 hrs
[19] = Antimicrobial activity against Salmonella pullorum C7913 assessed as bacterial killing measured after 16 hrs incubation; format: functional, Salmonella enterica subsp. enterica serovar Pullorum; conditions: Salmonella enterica
Staphylococcus aureus [20] = experiment: Antimicrobial activity against Staphylococcus aureus 29213 assessed as bacterial killing measured after 16 hrs incubation; format: functional
Escherichia coli [21] = experiment: Antimicrobial activity against Escherichia coli 25922 assessed as absence bacterial growth measured after 18 to 24 hrs incubation in presence of KCl by NCCLS method; format: functional; conditions: time 18-24 hrs
Staphylococcus aureus [22] = experiment: Antimicrobial activity against Methicillin-resistant Staphylococcus aureus 43300 assessed as bacterial killing measured after 16 hrs incubation; format: functional
Listeria monocytogenes [23] = experiment: Antimicrobial activity against Listeria monocytogenes 1.10753 assessed as bacterial killing measured after 16 hrs incubation; format: functional
Escherichia coli [24] = experiment: Antimicrobial activity against Escherichia coli K88 assessed as bacterial killing measured after 16 hrs incubation; format: functional
Salmonella typhimurium [25] = experiment: Antimicrobial activity against Salmonella typhimurium C7731 assessed as absence bacterial growth measured after 18 to 24 hrs incubation by NCCLS method; format: functional, Salmonella enterica subsp. enterica serovar Typhimurium; conditions: Salmonella enterica, time 18-24 hrs
Escherichia coli [26] = experiment: Antimicrobial activity against Escherichia coli 25922 assessed as absence bacterial growth measured after 18 to 24 hrs incubation in presence of ZnCl2 by NCCLS method; format: functional; conditions: time 18-24 hrs
Staphylococcus aureus [27] = experiment: Antimicrobial activity against Staphylococcus aureus 29213 assessed as absence bacterial growth measured after 18 to 24 hrs incubation by NCCLS method; format: functional; conditions: time 18-24 hrs
Pseudomonas aeruginosa [28] = experiment: Antimicrobial activity against Pseudomonas aeruginosa 27853 assessed as bacterial killing measured after 16 hrs incubation; format: functional
Escherichia coli [29] = experiment: Antimicrobial activity against Escherichia coli 25922 assessed as absence bacterial growth measured after 18 to 24 hrs incubation by NCCLS method; format: functional; conditions: time 18-24 hrs
Escherichia coli [30] = experiment: Antimicrobial activity against Escherichia coli 25922 assessed as absence bacterial growth measured after 18 to 24 hrs incubation in presence of 50% serum by NCCLS method; format: functional; conditions: time 18-24 hrs
Staphylococcus aureus [31] = experiment: Antimicrobial activity against Staphylococcus aureus 25923 assessed as bacterial killing measured after 16 hrs incubation; format: functional
[32] = tested on: Staphylococcus epidermidis; experiment: Antimicrobial activity against Staphylococcus epidermidis 12228 assessed as bacterial killing measured after 16 hrs incubation; format: functional
Escherichia coli [33] = experiment: Antimicrobial activity against Escherichia coli 25922 assessed as absence bacterial growth measured after 18 to 24 hrs incubation in presence of NaCl by NCCLS method; format: functional; conditions: time 18-24 hrs
[34] = Cytotoxicity against human HEK-293T cells assessed as cell survival rate at 64 uM measured after 8 hrs by MTT assay relative to control; format: toxicity, cell-based; conditions: read-out: Activity
Enterococcus faecalis [35] = experiment: Antimicrobial activity against Enterococcus faecalis 29212 assessed as absence bacterial growth measured after 18 to 24 hrs incubation by NCCLS method; format: functional; conditions: time 18-24 hrs
Escherichia coli [36] = experiment: Antimicrobial activity against Escherichia coli 25922 assessed as bacterial killing measured after 16 hrs incubation; format: functional
[37] = Cytotoxicity against porcine IPEC-J2 cells assessed as cell survival rate measured after 8 hrs by MTT assay; format: toxicity, cell-based, Sus scrofa; conditions: pig
Enterococcus faecalis [38] = experiment: Antimicrobial activity against Enterococcus faecalis 29212 assessed as bacterial killing measured after 16 hrs incubation; format: functional
[39] = Antimicrobial activity against Salmonella pullorum C7913 assessed as absence bacterial growth measured after 18 to 24 hrs incubation by NCCLS method; format: functional, Salmonella enterica subsp. enterica serovar Pullorum; conditions: Salmonella enterica, time 18-24 hrs
Escherichia coli [40] = experiment: Antimicrobial activity against Escherichia coli 25922 assessed as absence bacterial growth measured after 18 to 24 hrs incubation in presence of 12.5% serum by NCCLS method; format: functional; conditions: time 18-24 hrs
[41] = Cytotoxicity against porcine IPEC-J2 cells assessed as cell survival rate at 64 uM measured after 8 hrs by MTT assay relative to control; format: toxicity, cell-based, Sus scrofa; conditions: pig, read-out: Activity
[42] = Cytotoxicity against human HEK-293T cells assessed as cell survival rate measured after 8 hrs by MTT assay; format: toxicity, cell-based
[43] = Cytotoxicity against mouse RAW264.7 cells assessed as cell survival rate at 32 to 64 uM measured after 8 hrs by MTT assay relative to control; format: toxicity, cell-based; conditions: dose 32-64 µM, read-out: Activity
Pseudomonas aeruginosa [44] = experiment: Antimicrobial activity against Pseudomonas aeruginosa 27853 assessed as absence bacterial growth measured after 18 to 24 hrs incubation by NCCLS method; format: functional; conditions: time 18-24 hrs
Bacillus cereus [45] = experiment: Antimicrobial activity against Bacillus cereus 1.932 assessed as absence bacterial growth measured after 18 to 24 hrs incubation by NCCLS method; format: functional; conditions: time 18-24 hrs
Staphylococcus aureus [46] = experiment: Antimicrobial activity against Staphylococcus aureus 29213 assessed as absence bacterial growth measured after 18 to 24 hrs incubation by NCCLS m; format: functional; conditions: time 18-24 hrs
Salmonella typhimurium [47] = experiment: Antimicrobial activity against Salmonella typhimurium 14028 assessed as bacterial killing measured after 16 hrs incubation; format: functional, Salmonella enterica subsp. enterica serovar Typhimurium; conditions: Salmonella enterica
Salmonella typhimurium [48] = experiment: Antimicrobial activity against Salmonella typhimurium 14028 assessed as absence bacterial growth measured after 18 to 24 hrs incubation by NCCLS method; format: functional, Salmonella enterica subsp. enterica serovar Typhimurium; conditions: Salmonella enterica, time 18-24 hrs

Drug uptake [1]: Active | Drug uptake [2]: Active | Drug uptake [3]: Active | Drug uptake [4]: Active
Compound: CC(C)C[C@H](NC(=O)[C@H](CCCCN)NC(=O)CNC(=O)CNC(=O)[C@H](CCCCN)NC(=O)[C@H](CC(C)C)NC(=O)[C@H](Cc1c[nH]c2ccccc12)NC(=O)[C@H](CC(C)C)NC(=O)[C@H](CCCCN)NC(=O)CNC(=O)[C@H](C)NC(=O)[C@H](CCCCN)NC(=O)[C@H](CC(C)C)NC(=O)[C@H](Cc1c[nH]c2ccccc12)NC(=O)[C@H](CC(C)C)NC(=O)[C@H](CCCCN)NC(=O)CNC(=S)Nc1ccc2c(c1)C(=O)OC21c2ccc(O)cc2Oc2cc(O)ccc21)C(=O)N[C@@H](Cc1c[nH]c2ccccc12)C(=O)N[C@@H](CC(C)C)C(=O)N[C@@H](CCCCN)C(=O)NCC(N)=O ({FITC}-GKLWLKAGKLWLKGGKLWLKG-NH2)

Compound: H-GKLWLKGAKLWLKGGKLWLKG-NH2
MIC (Listeria monocytogenes [5]): > 32 µM | IC50 at 8 h [6]: > 64 µM | MBC (Salmonella typhimurium [7]): 8 µM | HC10 (Erythrocyte): > 128 µM | MIC [8]: 8 µM | MIC (Escherichia coli [9]): 8 µM | MIC (Escherichia coli [10]): 2 µM | MBC (Bacillus cereus [11]): 2 µM | MIC (Acinetobacter baumannii [12]): 4 µM | MIC (Escherichia coli [13]): > 32 µM | MIC (Escherichia coli [14]): 2 µM | MIC (Escherichia coli [15]): 1 µM | hemolysis at 1 h, 128 µM [16]: < 10% | MBC (Acinetobacter baumannii [17]): 4 µM | MIC (Staphylococcus aureus [18]): 4 µM | MBC [19]: 2 µM | MBC (Staphylococcus aureus [20]): 8 µM | MIC (Escherichia coli [21]): 2 µM | MBC (Staphylococcus aureus [22]): 8 µM | MBC (Listeria monocytogenes [23]): > 32 µM | MBC (Escherichia coli [24]): 1 µM | MIC (Salmonella typhimurium [25]): 4 µM | MIC (Escherichia coli [26]): 1 µM | MIC (Staphylococcus aureus [27]): 8 µM | MBC (Pseudomonas aeruginosa [28]): 8 µM | MIC (Escherichia coli [29]): 2 µM | MIC (Escherichia coli [30]): > 32 µM | MBC (Staphylococcus aureus [31]): 8 µM | MBC [32]: 8 µM | MIC (Escherichia coli [33]): 16 µM | viability at 8 h, 64 µM [34]: < 50% | MIC (Enterococcus faecalis [35]): 16 µM | MBC (Escherichia coli [36]): 2 µM | IC50 at 8 h [37]: > 64 µM | MBC (Enterococcus faecalis [38]): 16 µM | MIC [39]: 2 µM | MIC (Escherichia coli [40]): 32 µM | viability at 8 h, 64 µM [41]: < 50% | IC50 at 8 h [42]: > 64 µM | viability at 8 h, up to 64 µM [43]: 60% | MIC (Pseudomonas aeruginosa [44]): 4 µM | MIC (Bacillus cereus [45]): 2 µM | MIC (Staphylococcus aureus [46]): 8 µM | MBC (Salmonella typhimurium [47]): 8 µM | MIC (Salmonella typhimurium [48]): 2 µM
